Some test systems named below: K-562 leukemia; HT29 colon; T-47D breast; NCI-H460 lung; HCC-2998 colon; SF-268 CNS; LOX IMVI melanoma; HL-60(TB) leukemia; MALME-3M melanoma; SF-539 CNS.
Common to all, as to assay: growth of human tumour cells (NCI), 48 h

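Results reflect a 48-hour exposure of cells in 96-well plates to compound at five concentrations. Here, GI50 denotes the concentration required for 50% inhibition of growth. TGI: total growth inhibition.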

On to `COC(=O)C1=C(O)C(C(=O)OC)[C@@]2(O)[C@@H](C(=O)OC)C(c3ccc(OC(=O)C(CC(C)C)NC(C)=O)cc3)C[C@@H]1[C@@H]2C(=O)OC` (some centres undefined), for which the GI50 was 95 µM in the assay with K-562 leukemia; 62.2 µM in the assay on HT29 colon; 37.8 µM in the assay on T-47D breast; 41.6 µM with NCI-H460 lung; 19 µM with HCC-2998 colon; 35.7 µM in the assay with SF-268 CNS. Also, the GI50 in the assay with LOX IMVI melanoma is 20.6 µM; in the assay with HL-60(TB) leukemia, 43.9 µM. Besides, the TGI is over 100 µM in the assay on K-562 leukemia; over 100 µM with HT29 colon; over 100 µM in the assay on T-47D breast; over 100 µM in the assay on NCI-H460 lung; 52 µM with HCC-2998 colon; over 100 µM in the assay on SF-268 CNS. In addition, the TGI is 45 µM in the assay on LOX IMVI melanoma and over 100 µM in the assay with HL-60(TB) leukemia.
For the molecule `CNC(=O)OCC1=C(COC(=O)NC)CN(c2ccccc2)C1`, the TGI in the assay on MALME-3M melanoma, in the assay with K-562 leukemia, in the assay on HT29 colon, in the assay on T-47D breast, with NCI-H460 lung and with SF-539 CNS was over 100 µM each time. The TGI in the assay with HCC-2998 colon, with SF-268 CNS and in the assay on LOX IMVI melanoma was over 100 µM each time.
With `Cc1csc(Nc2nc(-c3cccc(Cl)c3)nc(C(Cl)(Cl)Cl)n2)n1`, the GI50 with MALME-3M melanoma is over 33.3 µM; in the assay on K-562 leukemia, 7.41 µM; in the assay with HT29 colon, 1.04 µM; with T-47D breast, 1.04 µM; in the assay with NCI-H460 lung, 1.22 µM; in the assay on SF-539 CNS it was 2.04 µM. Further, the GI50 was 1.22 µM in the assay with HCC-2998 colon, 6.48 µM in the assay on SF-268 CNS and 0.994 µM in the assay with HL-60(TB) leukemia. The TGI was over 33.3 µM in the assay with MALME-3M melanoma; over 33.3 µM in the assay with K-562 leukemia; 13.1 µM in the assay with HT29 colon; 8.54 µM in the assay with T-47D breast; 5.42 µM with NCI-H460 lung; 11.7 µM in the assay on SF-539 CNS. Moreover, the TGI in the assay on HCC-2998 colon is 4.71 µM; in the assay with SF-268 CNS, over 33.3 µM; with HL-60(TB) leukemia, 3.81 µM.
Consider `CN1c2ccccc2C(=O)Nc2cnc(Cl)nc21`, for which the TGI with MALME-3M melanoma, with K-562 leukemia, with HT29 colon, in the assay with T-47D breast, with SF-539 CNS and with HCC-2998 colon was over 100 µM each time. The TGI in the assay with LOX IMVI melanoma and in the assay with HL-60(TB) leukemia was over 100 µM in each case.
Take `CCCCCCN1C(=O)CN=C1Nc1ccc2cc3ccc(NC4=NCC(=O)N4CCCCCC)cc3nc2c1`: the GI50 in the assay on MALME-3M melanoma is 1.71 µM; with K-562 leukemia, 1.91 µM; with HT29 colon, 1.81 µM; in the assay on T-47D breast it was 1.71 µM; in the assay with NCI-H460 lung, 1.93 µM; in the assay on SF-539 CNS it was 1.81 µM. In addition, the results for the GI50 in the assay on HCC-2998 colon, in the assay on SF-268 CNS and with HL-60(TB) leukemia were 1.58 µM, 2.02 µM and 1.96 µM, respectively. Moreover, the TGI with MALME-3M melanoma came out at 3.59 µM; with K-562 leukemia it was 4.93 µM; in the assay with HT29 colon, 4.2 µM; in the assay on T-47D breast it was 4.97 µM; with NCI-H460 lung, 3.83 µM; with SF-539 CNS, 3.63 µM. In addition, the TGI was found to be 3.04 µM in the assay on HCC-2998 colon, 5.72 µM in the assay with SF-268 CNS and 4.16 µM with HL-60(TB) leukemia.
Consider `Nc1ncnc2c1ncn2Cc1ccc(C23CC4CC(CC(C4)C2)C3)c(O)c1`, for which the GI50 was 12.6 µM in the assay on MALME-3M melanoma; 15.1 µM in the assay on HT29 colon; 58.7 µM in the assay with T-47D breast; 11.8 µM in the assay with NCI-H460 lung; 23.4 µM in the assay with SF-539 CNS; 12.4 µM with HCC-2998 colon. Also, the GI50 was 21.1 µM in the assay with SF-268 CNS, 24.6 µM in the assay on LOX IMVI melanoma and 5.06 µM in the assay with HL-60(TB) leukemia. Besides, the TGI with MALME-3M melanoma was over 100 µM; in the assay on HT29 colon it was over 100 µM; in the assay on T-47D breast it was over 100 µM; in the assay on NCI-H460 lung, over 100 µM; with SF-539 CNS, 75.1 µM; in the assay with HCC-2998 colon, 82.1 µM. The TGI with SF-268 CNS, in the assay on LOX IMVI melanoma and with HL-60(TB) leukemia was over 100 µM throughout.
Consider `CCOc1cccnc1/C=N/NC(N)=S`, for which the GI50 is 3.72 µM in the assay with K-562 leukemia; 4.34 µM in the assay with HT29 colon; 4.85 µM in the assay with T-47D breast; 3.48 µM in the assay with NCI-H460 lung; 2.8 µM in the assay with SF-539 CNS; 3.42 µM in the assay with SF-268 CNS. The figures for the GI50 in the assay on LOX IMVI melanoma and in the assay on HL-60(TB) leukemia were 2.7 µM and 2.42 µM, respectively. For the same molecule, the TGI in the assay on K-562 leukemia was over 100 µM; with HT29 colon it was over 100 µM; in the assay with T-47D breast, over 100 µM; in the assay on NCI-H460 lung, over 100 µM; with SF-539 CNS, 9.59 µM; in the assay with SF-268 CNS it was over 100 µM. The values for the TGI in the assay with LOX IMVI melanoma and in the assay with HL-60(TB) leukemia were 14 µM and 6.16 µM, respectively.
With `CC1SC2(CCCCC2)N(NC(=O)c2[nH]c3ccc(F)cc3c2-c2ccccc2)C1=O` (centres undefined), the GI50 with MALME-3M melanoma was 26.1 µM; with K-562 leukemia, 35.4 µM; in the assay with HT29 colon, over 100 µM; in the assay on T-47D breast, over 100 µM; in the assay on NCI-H460 lung, over 100 µM; in the assay on SF-539 CNS, over 100 µM. Moreover, the results for the GI50 in the assay with HCC-2998 colon, in the assay on SF-268 CNS and with LOX IMVI melanoma were over 100 µM, 78.7 µM and over 100 µM, respectively. The TGI in the assay with MALME-3M melanoma, in the assay on K-562 leukemia, with HT29 colon, in the assay with T-47D breast, in the assay on NCI-H460 lung and in the assay on SF-539 CNS was over 100 µM in each case. Also, the TGI in the assay on HCC-2998 colon, with SF-268 CNS and in the assay with LOX IMVI melanoma was over 100 µM throughout.
On to `O=C(CC(C(=O)O)N1CCOCC1)c1ccccc1` (centres undefined), for which the TGI was 34 µM in the assay on MALME-3M melanoma; 49.1 µM in the assay with K-562 leukemia; 32.1 µM in the assay with HT29 colon; over 100 µM in the assay with T-47D breast; 42.1 µM in the assay on NCI-H460 lung; 45.7 µM with SF-539 CNS. Further, the figures for the TGI in the assay with SF-268 CNS, with LOX IMVI melanoma and with HL-60(TB) leukemia were 44.6 µM, 33.6 µM and 43.6 µM, respectively.
`Cc1cnc2[nH]c(-c3ccccc3)cc(=O)c2c1`: the TGI in the assay on MALME-3M melanoma was over 100 µM; in the assay on HT29 colon, 0.0732 µM; in the assay on T-47D breast, over 100 µM; in the assay on NCI-H460 lung, over 47.5 µM; in the assay with SF-539 CNS, 0.0671 µM; in the assay with HCC-2998 colon it was 1.96 µM. Further, the TGI in the assay on SF-268 CNS was over 100 µM; in the assay with LOX IMVI melanoma, over 100 µM; in the assay on HL-60(TB) leukemia, 0.226 µM.
